Results on two compounds are retold here after paper PMC5687316 (Acta Pharmaceutica Sinica. B, 2017).

Structures are written as SMILES. Where a name gives a salt, the structure may show the parent alone.

Series [1] in a line: Maximum plasma concentration in humans after oral administration. Conditions: human, calculated as Cmax × fu; icotinib 125 mg × 3 daily, erlotinib 150 mg.
The nature of series [2]: Nonspecific binding to HLMs. The format is in vitro ADME, human. The note with it: HLMs 0.2 mg/mL.
For the next series, the target named is T1, UGT1A1 (Homo sapiens, UniProt P22309).
T1 sequence (P22309 26-533): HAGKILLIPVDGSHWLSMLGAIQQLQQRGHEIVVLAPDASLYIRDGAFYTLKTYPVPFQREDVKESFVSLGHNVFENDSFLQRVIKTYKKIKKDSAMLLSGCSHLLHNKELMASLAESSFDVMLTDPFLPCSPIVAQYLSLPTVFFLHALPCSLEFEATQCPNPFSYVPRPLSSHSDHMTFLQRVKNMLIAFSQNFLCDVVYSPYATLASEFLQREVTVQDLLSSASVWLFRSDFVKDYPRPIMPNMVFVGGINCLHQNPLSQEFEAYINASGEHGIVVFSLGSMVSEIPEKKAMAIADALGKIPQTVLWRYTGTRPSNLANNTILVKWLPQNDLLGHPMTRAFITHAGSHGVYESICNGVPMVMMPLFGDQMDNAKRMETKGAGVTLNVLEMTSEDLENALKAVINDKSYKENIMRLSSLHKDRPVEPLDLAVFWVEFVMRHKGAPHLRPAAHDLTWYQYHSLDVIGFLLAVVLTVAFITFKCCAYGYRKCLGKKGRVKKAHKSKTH
Briefly: Inhibition of NCHN-4-O-glucuronidation in recombinant human UGT1A1. The format is biochemical. The note with it: for activity at 50 min, 10 µmol/L: human, recombinant human UGT1A1, pH 7.4, probe NCHN (NCHN-4-O-glucuronidation); for Inhibition type: recombinant human UGT1A1, Lineweaver-Burk and Dixon plots.

The target in a further series is T2, UGT1A1 in HLMs (Homo sapiens, UniProt P22309).
T2 sequence (P22309 26-533): T1 sequence (P22309 26-533)
The format is biochemical. Conditions: for Inhibition type: HLM, Lineweaver-Burk and Dixon plots; for time dependence of UGT1A1 inhibition: data not shown; for phase II metabolites of the inhibitor in the incubations: UGT1A1/HLM incubations with UDPGA.

Consider `C#Cc1cccc(Nc2ncnc3cc4c(cc23)OCCOCCOCCO4)c1` [Icotinib, 4-[(3-ethynylphenyl)amino]-6,7-benzo-12-crown-4-quinazoline hydrochloride], for which the “Cmax,u” value in series [1] is 530 nM. In addition, the “binding to HLMs” value in series [2] was “negligible binding”. For the same compound, on UGT1A1, the Ki was 10 µM; the activity at 50 min, 10 µmol/L amounted to 36%; the Inhibition type result was “Noncompetitive”. The half-maximal inhibitory concentration (IC50) at UGT1A1 (IC50, recombinant human UGT1A1 0.06 mg/mL, NCHN-4-O-glucuronidation) stood at 8.76 ± 0.78 µM. Moreover, in “Binding to human plasma”, the fraction unbound is 0.11. Besides, at UGT1A1 in HLMs, the Ki is 8.55 µM, the Inhibition type result is reported as “Noncompetitive” and the “phase II metabolites of the inhibitor in the incubations” value is listed as “no phase II metabolites”. Besides, the “fold difference in Ki between icotinib and erlotinib” value on UGT1A1 in HLMs (HLMs, NCHN-O-glucuronidation) was “about 7 fold”. In addition, the “time dependence of UGT1A1 inhibition” value at UGT1A1 in HLMs (HLMs) was “not time-dependent”. The compound further came in with an IC50 against UGT1A1 in HLMs (IC50, HLM 0.2 mg/mL, NCHN-4-O-glucuronidation) of 5.15 ± 0.28 µM.
On to `C#Cc1cccc(Nc2ncnc3cc(OCCOC)c(OCCOC)cc23)c1` [Erlotinib], for which the “Cmax,u” value in series [1] is 550 nM. Moreover, the “binding to HLMs” value in series [2] is “negligible binding”. For the same compound, on UGT1A1, the activity at 50 min, 10 µmol/L came to 19% and the Inhibition type entry is listed as “Noncompetitive”. The same compound registered a fraction unbound in the series “Binding to human plasma” of 0.09. Besides, at UGT1A1 in HLMs, the Inhibition type result is recorded as “Noncompetitive” and the “phase II metabolites of the inhibitor in the incubations” value is “no phase II metabolites”. For the same compound, the “time dependence of UGT1A1 inhibition” value on UGT1A1 in HLMs (HLMs) is reported as “not time-dependent”.
